What was measured:
Format in all cases: cell-based
[1] = tested on: vaginal secretion specimen of a patient suffering from typical bacterial vaginosis; test: Experiment Example 2: pH of culture samples (production of acids); settings: for pH values in the tube compared with the other tubes: 10% saccharide tube, after 24 or 48 hours culture; for pH, 24 hours-culture / pH, 48 hours-culture: 10.0% saccharide, 1.0% yeast extract, 1.6% xanthan gum (dextrin 0.5%, starch none), pH 6.2, candle jar, 37° C.
Description: (§1) • (1)The preparation of the compositions: Different saccharides were used respectively to prepare the following compositions according to the methods mentioned above: glucose, fructose, galactose, mannose, maltose, sucrose, lactose, lactulose, mycose, cellobiose, melibiose, melitose, malto-oligosaccharide, isomaltooligosaccharide and fructooligosaccharide, dextrin, starch, and glycogen: • A. 5% glucose, 1.0% yeast extract, 1.6% xanthan gum, pH adjusted to 6.2; • B. 5% fructose, 1.0% yeast extract, 1.6% xanthan gum, pH adjusted to 6.2; • C. 5% galactose, 1.0% yeast extract, 1.6% xanthan gum, pH adjusted to 6.2; • D. 5% mannose, 1.0% yeast extract, 1.6% xanthan gum, pH adjusted to 6.2; • E. 10.0% maltose, 1.0% yeast extract, 1.6% xanthan gum, pH adjusted to 6.2; • F. 10.0% sucrose, 1.0% yeast extract, 1.6% xanthan gum, pH adjusted to 6.2; • G. 10.0% lactose, 1.0% yeast extract, 1.6% xanthan gum, pH adjusted to 6.2; • H. 10.0% lactulose, 1.0% yeast extract, 1.6% xanthan gum, pH adjusted to 6.2; • I. 10.0% cellobiose, 1.0% yeast extract, 1.6% xanthan gum, pH adjusted to 6.2; • J. 10.0% mycose, 1.0% yeast extract, 1.6% xanthan gum, pH adjusted to 6.2; • K. 10.0% melibiose, 1.0% yeast extract, 1.6% xanthan gum, pH adjusted to 6.2; • L. 10.0% melitose, 1.0% yeast extract, 1.6% xanthan gum, pH adjusted to 6.2; • M. 10.0% maltooligosaccharide, 1.0% yeast extract, 1.6% xanthan gum, pH adjusted to 6.2; • N. 10.0% isomaltooligosaccharide, 1.0% yeast extract, 1.6% xanthan gum, pH adjusted to 6.2; • O. 10.0% fructooligosaccharide, 1.0% yeast extract, 1.6% xanthan gum, pH adjusted to 6.2; • P. 10.0% dextrin, 1.0% yeast extract, 0.5% xanthan gum, pH adjusted to 6.2; • Q. 10.0% starch, 1.0% yeast extract, pH adjusted to 6.2; • R. 10.0% glycogen, 1.0% yeast extract, 1.6% xanthan gum, pH adjusted to 6.2. • (2)The preparation of the test tubes: The compositions prepared above were filled into test tubes, with each tube containing 5 ml, sterilized, and kept until use for experiment. • (3) Specimen suspension: Vaginal secretion was taken from one of the patients suffering from typical bacterial vagmosis with a cotton swab, then the swab was washed in 2 ml sterilized Trypcase-soy Broth immediately, and thus the specimen suspension was ready. […] Then the tubes were placed in a candle jar and cultivated at 37° C. After 24 hours and 48 hours' culture, culture samples were taken respectively from each of the tubes, then the Gram smears of the samples were observed and the pH values of culture samples were tested. […] Meanwhile the pH values in most of the composition tubes decreased to different levels. […] And maltose and sucrose exert better effect in promoting the growth of Gram-positive bacilli and the production of acids than that of the other kinds of oligosaccharides.

[2] = tested on: vaginal secretion specimen of a patient suffering from typical bacterial vaginosis; test: Experiment Example 4: pH of culture samples (production of acids); settings: 17.0% saccharide, 1.0% yeast extract, 1.6% xanthan gum, pH 6.2, candle jar, 37° C.
Description: (§2) • (1)The preparation of the compositions: Maltose and sucrose were used respectively to prepare the following composition in the methods mentioned above: • A. 17.0% maltose, 1.0% yeast extract, 1.6% xanthan gum, pH adjusted to 6.2; • B. 17.0% sucrose, 1.0% yeast extract, 1.6% xanthan gum, pH adjusted to 6.2; • (2) The preparation of the test tubes: Compositions prepared above were filled into the test tubes, with each tube containing 5 ml, sterilized, and kept until use for experiment. • (3) Specimen suspension: Vaginal secretion was taken from one of the patients suffering from typical bacterial vaginosis with a cotton swab, then the swab was washed in 2 ml sterilized Trypcase-soy Broth immediately, and thus the specimen suspension was ready. […] Then the tubes were placed in a candle jar and cultivated at 37° C. After 24 hours and 48 hours' culture, culture samples were taken respectively from each of the tubes, then the Gram smears of the samples were observed and the pH values of culture samples were tested.

Gram-negative cocci [3] = test: Experiment Example 2: comparison of saccharides, specimen culture, Gram smear; settings: 10.0% saccharide, 1.0% yeast extract, 1.6% xanthan gum (dextrin 0.5%, starch none), pH 6.2, candle jar, 37° C.
Description: as §1

Gram-positive cocci [4] = test: as above; settings: 10.0% saccharide, 1.0% yeast extract, 1.6% xanthan gum (dextrin 0.5%, starch none), pH 6.2, candle jar, 37° C.
Description: as §1

Gram-positive bacilli [5] = test: as above; settings: 10.0% saccharide, 1.0% yeast extract, 1.6% xanthan gum (dextrin 0.5%, starch none), pH 6.2, candle jar, 37° C.
Description: as §1

Gram-negative bacilli [6] = test: as above; settings: 10.0% saccharide, 1.0% yeast extract, 1.6% xanthan gum (dextrin 0.5%, starch none), pH 6.2, candle jar, 37° C.
Description: as §1

Gram-positive cocci [7] = test: Experiment Example 3: 2.5% maltose or sucrose, specimen culture, Gram smear; settings: 2.5% saccharide, 1.0% yeast extract, 1.6% xanthan gum, pH 6.2, candle jar, 37° C.
Description: as §2, with “• (1) The” for “• (1)The”, “composition according to” for “composition in”, “A. 2.5%” for “A. 17.0%”, “B. 2.5%” for “B. 17.0%”, “sucrose, 1.0” for “sucrose, 1.0%”, “Compositions as” for “Compositions”

Gram-negative cocci [8] = test: Experiment Example 4: 17.0% maltose or sucrose, specimen culture, Gram smear; settings: 17.0% saccharide, 1.0% yeast extract, 1.6% xanthan gum, pH 6.2, candle jar, 37° C.
Description: as §2

Gram-positive cocci [9] = test: as above; settings: 17.0% saccharide, 1.0% yeast extract, 1.6% xanthan gum, pH 6.2, candle jar, 37° C.
Description: as §2

Gram-positive bacilli [10] = test: as above; settings: 17.0% saccharide, 1.0% yeast extract, 1.6% xanthan gum, pH 6.2, candle jar, 37° C.
Description: as §2

Gram-negative bacilli [11] = test: as above; settings: 17.0% saccharide, 1.0% yeast extract, 1.6% xanthan gum, pH 6.2, candle jar, 37° C.
Description: as §2

## OC[C@H]1O[C@H](O[C@H]2[C@H](O)[C@@H](O)[C@H](O)O[C@@H]2CO)[C@H](O)[C@@H](O)[C@@H]1O [Maltose, maltose]
[1]
  pH values in the tube compared with the other tubes: lower than that of the other tubes
  pH, 24 hours-culture: 4.6-48
  pH, 48 hours-culture: 4.4-4.6
[2]
  pH, 24 hours culture: 5.4
  pH, 48 hours culture: 5.1
Gram-negative cocci [3]
  Bacteria G − c (Gram-negative cocci), 24 hours-culture: G − c, − (No or less than one bacterium per field of version under oil-immersion lens)
  Bacteria G − c (Gram-negative cocci), 48 hours-culture: G − c, − (No or less than one bacterium per field of version under oil-immersion lens)
Gram-positive cocci [4]
  Bacteria G + c (Gram-positive cocci), 24 hours-culture: G + c, ++ (About 10-99 bacteria per field of vision under oil-immersion lens)
  Bacteria G + c (Gram-positive cocci), 48 hours-culture: G + c, + (1-9 bacteria per field of vision under oil-immersion lens)
Gram-positive bacilli [5]; 24 hours
  Bacteria G + b (Gram-positive bacilli), 24 hours-culture: G + b, ++ (About 10-99 bacteria per field of vision under oil-immersion lens)
Gram-positive bacilli [5]
  Bacteria G + b (Gram-positive bacilli), 48 hours-culture: G + b, +++ (About 100 bacteria or more per field vision under oil-immersion lens, even uncountable)
Gram-negative bacilli [6]
  Bacteria G − b (Gram-negative bacilli), 24 hours-culture: G − b, +++ (About 100 bacteria or more per field vision under oil-immersion lens, even uncountable)
  Bacteria G − b (Gram-negative bacilli), 48 hours-culture: G − b, ++ (About 10-99 bacteria per field of vision under oil-immersion lens)
Gram-positive cocci [7]
  Bacteria G + c (Gram-positive cocci), 24 hours-culture: G + c, − (No or less than one bacterium per field of version under oil-immersion lens)
  Bacteria G + c (Gram-positive cocci), 48 hours-culture: G + c, + (1-9 bacteria per field of vision under oil-immersion lens)
Gram-negative cocci [8]
  Bacteria G − c (Gram-negative cocci), 24 hours culture: G − c, − (No or less than one bacterium per field of version under oil-immersion lens)
  Bacteria G − c (Gram-negative cocci), 48 hours culture: G − c, − (No or less than one bacterium per field of version under oil-immersion lens)
Gram-positive cocci [9]
  Bacteria G + c (Gram-positive cocci), 24 hours culture: G + c, + (1-9 bacteria per field of vision under oil-immersion lens)
  Bacteria G + c (Gram-positive cocci), 48 hours culture: G + c, ++ (About 10-99 bacteria per field of vision under oil-immersion lens)
Gram-positive bacilli [10]
  Bacteria G + b (Gram-positive bacilli), 24 hours culture: G + b, +++ (About 100 bacteria or more per field vision under oil-immersion lens, even uncountable)
  Bacteria G + b (Gram-positive bacilli), 48 hours culture: G + b, ++ (About 10-99 bacteria per field of vision under oil-immersion lens)
Gram-negative bacilli [11]; 24 hours
  Bacteria G − b (Gram-negative bacilli), 24 hours culture: G − b, + (1-9 bacteria per field of vision under oil-immersion lens)
Gram-negative bacilli [11]
  Bacteria G − b (Gram-negative bacilli), 48 hours culture: G − b, ++ (About 10-99 bacteria per field of vision under oil-immersion lens)

## OC[C@H]1O[C@@](CO)(O[C@H]2O[C@H](CO)[C@@H](O)[C@H](O)[C@H]2O)[C@@H](O)[C@@H]1O [Sucrose, sucrose]
[1]
  pH values in the tube compared with the other tubes: lower than that of the other tubes
  pH, 24 hours-culture: 4.8-5.1
  pH, 48 hours-culture: 4.6-4.8
[2]
  pH, 24 hours culture: 6.2
  pH, 48 hours culture: 5.4
Gram-negative cocci [3]
  Bacteria G − c (Gram-negative cocci), 24 hours-culture: G − c, − (No or less than one bacterium per field of version under oil-immersion lens)
  Bacteria G − c (Gram-negative cocci), 48 hours-culture: G − c, − (No or less than one bacterium per field of version under oil-immersion lens)
Gram-positive cocci [4]
  Bacteria G + c (Gram-positive cocci), 24 hours-culture: G + c, + (1-9 bacteria per field of vision under oil-immersion lens)
  Bacteria G + c (Gram-positive cocci), 48 hours-culture: G + c, + (1-9 bacteria per field of vision under oil-immersion lens)
Gram-positive bacilli [5]
  Bacteria G + b (Gram-positive bacilli), 48 hours-culture: G + b, +++ (About 100 bacteria or more per field vision under oil-immersion lens, even uncountable)
Gram-negative bacilli [6]
  Bacteria G − b (Gram-negative bacilli), 24 hours-culture: G − b, + (1-9 bacteria per field of vision under oil-immersion lens)
  Bacteria G − b (Gram-negative bacilli), 48 hours-culture: G − b, ++ (About 10-99 bacteria per field of vision under oil-immersion lens)
Gram-positive cocci [7]
  Bacteria G + c (Gram-positive cocci), 24 hours-culture: G + c, + (1-9 bacteria per field of vision under oil-immersion lens)
  Bacteria G + c (Gram-positive cocci), 48 hours-culture: G + c, + (1-9 bacteria per field of vision under oil-immersion lens)
Gram-negative cocci [8]
  Bacteria G − c (Gram-negative cocci), 24 hours culture: G − c, − (No or less than one bacterium per field of version under oil-immersion lens)
  Bacteria G − c (Gram-negative cocci), 48 hours culture: G − c, − (No or less than one bacterium per field of version under oil-immersion lens)
Gram-positive cocci [9]
  Bacteria G + c (Gram-positive cocci), 24 hours culture: G + c, + (1-9 bacteria per field of vision under oil-immersion lens)
  Bacteria G + c (Gram-positive cocci), 48 hours culture: G + c, ++ (About 10-99 bacteria per field of vision under oil-immersion lens)
Gram-positive bacilli [10]
  Bacteria G + b (Gram-positive bacilli), 24 hours culture: G + b, ++ (About 10-99 bacteria per field of vision under oil-immersion lens)
  Bacteria G + b (Gram-positive bacilli), 48 hours culture: G + b, ++ (About 10-99 bacteria per field of vision under oil-immersion lens)
Gram-negative bacilli [11]
  Bacteria G − b (Gram-negative bacilli), 48 hours culture: G − b, ++ (About 10-99 bacteria per field of vision under oil-immersion lens)
